Data on 34 compounds can be found in ChEMBL document CHEMBL1154536, “Optimization of 4,6-bis-anilino-1H-pyrrolo[2,3-d]pyrimidine IGF-1R tyrosine kinase inhibitors towards JNK selectivity” (Bioorg Med Chem Lett, 2009).

Data set [1] addresses T1, Insulin-like growth factor 1 receptor (Homo sapiens, UniProt P08069). Nature of the data set: Inhibition of IGF-1R.
Data set [2] has as its target T1, Insulin-like growth factor 1 receptor. The data set is described as follows: Inhibition of phospho IGFR1 by cellular assay.
In data set [3] the target is Mitogen-activated protein kinase 8 (Homo sapiens, UniProt P45983). Nature of the data set: Inhibition of His-tagged JNK1.
Chain of Mitogen-activated protein kinase 8 (P45983 whole entry): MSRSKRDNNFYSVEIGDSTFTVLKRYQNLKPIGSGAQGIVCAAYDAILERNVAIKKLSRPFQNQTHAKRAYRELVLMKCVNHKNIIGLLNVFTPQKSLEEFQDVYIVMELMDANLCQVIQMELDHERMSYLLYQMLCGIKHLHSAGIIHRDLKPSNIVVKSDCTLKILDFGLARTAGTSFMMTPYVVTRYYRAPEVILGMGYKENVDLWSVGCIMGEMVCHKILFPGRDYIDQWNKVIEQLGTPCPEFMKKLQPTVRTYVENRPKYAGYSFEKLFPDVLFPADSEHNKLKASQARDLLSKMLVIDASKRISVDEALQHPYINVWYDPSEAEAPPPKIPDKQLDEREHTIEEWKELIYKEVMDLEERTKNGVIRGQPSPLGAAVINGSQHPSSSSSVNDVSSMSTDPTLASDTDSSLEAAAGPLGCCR
Data set [4] is described as follows: Clearance in rat at 2.5 mg/kg, iv and […] mg/kg, po. Conditions: in vivo. The class given is ADME, organism-based.
The nature of data set [5]: Cmax in rat at 13 mg/kg, po. The class given is ADME, organism-based. More on the design: dose 13 mg/kg, route oral. The following applies: in vivo.
The test system of data set [6] is Rattus norvegicus. Nature of the data set: Dose normalized AUC (0 to 8 hrs) in rat at 13 mg/kg, po. The class given is ADME, organism-based. On the set-up: time < 8 hr, dose 13 mg/kg, route oral. Conditions: in vivo.
Data set [7] in a line: Oral bioavailability in rat at 13 mg/kg, po. The class given is ADME, organism-based. Conditions: in vivo.
The target of data set [8] is T1, Insulin-like growth factor 1 receptor. Nature of the data set: Inhibition of phospho IGFR1 by cellular assay in presence of 2%HSA.
Data set [9] is described as follows: Clearance in rat at 2.6 mg/kg, iv and […] mg/kg, po. The class given is ADME, organism-based. Conditions: in vivo.
Data set [10] in a line: Clearance in rat at 2.5 mg/kg, iv and 10 mg/kg, po. The class given is ADME, organism-based. Conditions: in vivo.
Data set [11] deals with Rattus norvegicus. The data set is described as follows: Dose normalized AUC (0 to 8 hrs) in rat at 10 mg/kg, po. The class given is ADME, organism-based. More on the design: time < 8 hr, dose 10 mg/kg, route oral. The following applies: in vivo.
Data set [12] is described as follows: Oral bioavailability in rat at 10 mg/kg, po. The following applies: in vivo. The class given is ADME, organism-based.
Data set [13] can be described thus: Cmax in rat at 10 mg/kg, po. The following applies: in vivo. The class given is ADME, organism-based. More on the design: dose 10 mg/kg, route oral.
For data set [14], the target named is Mitogen-activated protein kinase 10 (Homo sapiens, UniProt P53779). The data set is described as follows: Inhibition of human His-tagged JNK3.
Chain of Mitogen-activated protein kinase 10 (P53779 whole entry): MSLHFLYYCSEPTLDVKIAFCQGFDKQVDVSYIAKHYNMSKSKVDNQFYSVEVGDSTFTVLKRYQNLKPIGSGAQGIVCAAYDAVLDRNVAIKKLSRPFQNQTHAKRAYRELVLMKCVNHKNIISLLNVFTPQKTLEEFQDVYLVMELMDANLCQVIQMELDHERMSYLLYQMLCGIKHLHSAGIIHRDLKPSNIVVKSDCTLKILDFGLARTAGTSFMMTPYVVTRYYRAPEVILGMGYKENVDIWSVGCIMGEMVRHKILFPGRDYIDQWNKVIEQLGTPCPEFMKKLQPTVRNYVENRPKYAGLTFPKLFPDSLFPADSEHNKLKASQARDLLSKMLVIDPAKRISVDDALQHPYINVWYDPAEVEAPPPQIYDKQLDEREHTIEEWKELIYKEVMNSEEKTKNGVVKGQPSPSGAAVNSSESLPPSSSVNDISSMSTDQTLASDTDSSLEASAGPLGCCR
Data set [15] has as its target ALK tyrosine kinase receptor (Homo sapiens, UniProt Q9UM73). The data set is described as follows: Inhibition of ALK.
For a further data set, the target named is Insulin receptor (Homo sapiens, UniProt P06213). Nature of the data set: Inhibition of IR.
Chain of Insulin receptor (P06213 28-758 limits assumed): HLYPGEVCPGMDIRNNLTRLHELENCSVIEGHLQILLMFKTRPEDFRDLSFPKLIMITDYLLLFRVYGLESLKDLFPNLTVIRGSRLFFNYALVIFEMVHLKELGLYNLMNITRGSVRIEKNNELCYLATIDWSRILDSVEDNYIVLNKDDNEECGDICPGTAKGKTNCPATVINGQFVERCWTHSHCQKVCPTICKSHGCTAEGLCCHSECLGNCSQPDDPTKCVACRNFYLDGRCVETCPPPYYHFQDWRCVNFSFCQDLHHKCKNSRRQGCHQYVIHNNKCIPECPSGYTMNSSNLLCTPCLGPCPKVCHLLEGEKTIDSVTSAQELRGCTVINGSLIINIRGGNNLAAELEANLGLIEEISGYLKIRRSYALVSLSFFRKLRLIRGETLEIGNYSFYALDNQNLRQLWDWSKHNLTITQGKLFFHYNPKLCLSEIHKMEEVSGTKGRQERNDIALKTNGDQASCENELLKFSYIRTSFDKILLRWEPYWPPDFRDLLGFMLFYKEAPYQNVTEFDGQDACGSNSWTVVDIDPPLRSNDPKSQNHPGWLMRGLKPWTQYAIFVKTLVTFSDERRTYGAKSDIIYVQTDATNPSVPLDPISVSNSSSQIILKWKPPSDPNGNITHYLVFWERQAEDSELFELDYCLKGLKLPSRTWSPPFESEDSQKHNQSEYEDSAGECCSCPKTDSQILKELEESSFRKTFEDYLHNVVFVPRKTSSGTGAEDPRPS
Chain of Insulin receptor (P06213 763-1382 limits assumed): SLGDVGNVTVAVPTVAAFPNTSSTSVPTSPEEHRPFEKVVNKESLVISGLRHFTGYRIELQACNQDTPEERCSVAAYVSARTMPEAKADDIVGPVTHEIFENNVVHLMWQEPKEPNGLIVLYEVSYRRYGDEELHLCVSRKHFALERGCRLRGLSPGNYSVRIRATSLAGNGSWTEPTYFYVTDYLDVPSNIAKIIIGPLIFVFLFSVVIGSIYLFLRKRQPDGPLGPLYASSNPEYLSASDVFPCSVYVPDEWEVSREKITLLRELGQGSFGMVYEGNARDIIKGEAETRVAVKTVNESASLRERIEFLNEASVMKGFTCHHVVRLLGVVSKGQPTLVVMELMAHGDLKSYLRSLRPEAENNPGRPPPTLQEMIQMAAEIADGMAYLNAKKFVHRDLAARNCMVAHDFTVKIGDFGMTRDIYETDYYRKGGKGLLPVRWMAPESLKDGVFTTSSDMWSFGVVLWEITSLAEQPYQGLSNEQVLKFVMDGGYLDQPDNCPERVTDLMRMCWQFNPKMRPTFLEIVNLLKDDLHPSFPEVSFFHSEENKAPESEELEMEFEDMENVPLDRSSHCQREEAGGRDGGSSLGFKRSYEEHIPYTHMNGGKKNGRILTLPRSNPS
Data set [16] has as its system Rattus norvegicus. The data set is described as follows: Dose normalized AUC (0 to 8 hrs) in rat at 9 mg/kg, po. The class given is ADME, organism-based. The following applies: in vivo. On the set-up: time < 8 hr, dose 9 mg/kg, route oral.
A short description of data set [17]: Cmax in rat at 9 mg/kg, po. The class given is ADME, organism-based. More on the design: dose 9 mg/kg, route oral. Conditions: in vivo.

T1 sequence (P08069 31-736 limits assumed): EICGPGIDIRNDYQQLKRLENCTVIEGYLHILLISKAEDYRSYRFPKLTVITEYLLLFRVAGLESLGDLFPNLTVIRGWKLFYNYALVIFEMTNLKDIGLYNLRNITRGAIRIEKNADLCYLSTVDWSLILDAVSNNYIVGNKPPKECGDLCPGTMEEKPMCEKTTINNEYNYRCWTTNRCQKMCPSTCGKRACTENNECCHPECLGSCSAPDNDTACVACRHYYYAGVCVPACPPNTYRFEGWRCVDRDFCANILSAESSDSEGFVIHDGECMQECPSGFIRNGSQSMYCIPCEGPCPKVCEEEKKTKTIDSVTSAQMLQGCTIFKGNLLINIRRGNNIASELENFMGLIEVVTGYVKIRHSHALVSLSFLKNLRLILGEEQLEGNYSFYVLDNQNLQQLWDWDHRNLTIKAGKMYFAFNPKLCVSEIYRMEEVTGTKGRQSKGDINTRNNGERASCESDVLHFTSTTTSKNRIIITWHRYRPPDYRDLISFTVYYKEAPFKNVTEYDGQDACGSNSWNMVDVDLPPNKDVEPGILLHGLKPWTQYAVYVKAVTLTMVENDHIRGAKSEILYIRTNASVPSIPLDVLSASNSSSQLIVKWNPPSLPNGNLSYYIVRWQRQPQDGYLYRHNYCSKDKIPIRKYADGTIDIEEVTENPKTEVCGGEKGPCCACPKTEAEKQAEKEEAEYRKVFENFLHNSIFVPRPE
T1 sequence (P08069 741-1367 limits assumed): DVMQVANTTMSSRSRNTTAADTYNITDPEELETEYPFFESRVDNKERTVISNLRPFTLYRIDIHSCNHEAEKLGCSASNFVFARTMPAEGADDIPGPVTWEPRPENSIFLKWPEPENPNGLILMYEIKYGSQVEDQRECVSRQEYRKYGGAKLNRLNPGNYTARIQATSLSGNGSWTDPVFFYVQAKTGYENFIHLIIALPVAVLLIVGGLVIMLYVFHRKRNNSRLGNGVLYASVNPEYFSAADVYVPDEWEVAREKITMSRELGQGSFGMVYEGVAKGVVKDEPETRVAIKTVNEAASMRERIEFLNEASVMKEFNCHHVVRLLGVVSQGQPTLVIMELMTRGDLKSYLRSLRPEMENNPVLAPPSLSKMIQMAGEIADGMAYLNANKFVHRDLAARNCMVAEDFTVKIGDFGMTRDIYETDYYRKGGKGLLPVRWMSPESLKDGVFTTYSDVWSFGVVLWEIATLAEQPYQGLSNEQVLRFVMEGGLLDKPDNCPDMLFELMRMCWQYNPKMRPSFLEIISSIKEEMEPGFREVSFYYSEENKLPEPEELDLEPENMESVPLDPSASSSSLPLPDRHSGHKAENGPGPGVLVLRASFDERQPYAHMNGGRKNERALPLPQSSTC

As for `COc1cc2c(cc1Nc1nc(Nc3cccc(F)c3C(N)=O)c3cc[nH]c3n1)N(C(=O)CCN1CCN(C(C)C)CC1)CC2`, the IC50 in [1] was 4 nM; in [2], 651 nM; in data set [3], 1590 nM.

As to `COc1cc2c(cc1Nc1nc(Nc3cccc(F)c3C(N)=O)c3cc[nH]c3n1)N(C(C)=O)CCC2`, the results for the IC50 in data set [1], in data set [2] and in data set [3] were 25 nM, 1980 nM and 7940 nM, respectively.

For `COc1ccc(OCCCN(C)C)cc1Nc1nc(Nc2cccc(F)c2C(N)=O)c2cc[nH]c2n1`, in data set [4], the clearance was found to be 112 mL/min/kg. In data set [5], this compound had a Cmax of 192 ng/mL. In addition, the AUC in the data set on Rattus norvegicus [6] was determined as 85 ng·h/mL/mg/kg. This compound showed a bioavailability in [7] of 60%. The IC50 came out at 8 nM in [1], 81 nM in data set [2] and 631 nM in [3].

For `COc1cc2c(cc1Nc1nc(Nc3cccc(F)c3C(N)=O)c3cc[nH]c3n1)N(C(C)=O)CC2`, the figures for the IC50 in data set [1], in data set [2] and in [3] were 6 nM, 278 nM and 126 nM, respectively.

Consider `CNCC(=O)N1CCc2cc(OC)c(Nc3nc(Nc4cccc(F)c4C(N)=O)c4cc[nH]c4n3)cc21`, for which the half-maximal inhibitory concentration (IC50) came out at 2 nM in data set [1], 79 nM in data set [2] and 2000 nM in data set [3].

As for `COc1ccc(CCCN(C)C)cc1Nc1nc(Nc2cccc(F)c2C(N)=O)c2cc[nH]c2n1`, the values for the IC50 in [1], in data set [2] and in [3] were 13 nM, 212 nM and 5010 nM, respectively.

As for `COc1cc2c(cc1Nc1nc(Nc3cccc(F)c3C(N)=O)c3cc[nH]c3n1)N(C(=O)CN(C)C)CC2`, the values for the IC50 in [8], in data set [2] and in [3] were 487 nM, 56 nM and 1590 nM, respectively. The compound further returned a Cmax in [5] of 455 ng/mL. This compound returned an AUC with Rattus norvegicus [6] of 190 ng·h/mL/mg/kg. In data set [9], this compound gave a clearance of 48 mL/min/kg. In data set [7], the bioavailability stood at 61%.

For `COc1cc2c(cc1Nc1nc(Nc3cccc(F)c3C(N)=O)c3cc[nH]c3n1)N(CCN(C)C)CC2`, the IC50 came to 40 nM in data set [1], 794 nM in data set [2] and 100 nM in data set [3].

On to `CCN(C)CC(=O)N1CCc2cc(OC)c(Nc3nc(Nc4cccc(F)c4C(N)=O)c4cc[nH]c4n3)cc21`, for which the 50% inhibitory concentration (IC50) in data set [1] amounted to 3 nM; in data set [2] it was 19 nM; in data set [3] it was 3160 nM.

For `CCCN1CCC(Oc2ccc(OC)c(Nc3nc(Nc4cccc(F)c4C(N)=O)c4cc[nH]c4n3)c2)CC1`, the IC50 in data set [1] was 6 nM; in [2], 929 nM; in data set [3] it was 1260 nM.

Regarding `COc1cc2c(cc1Nc1nc(Nc3cccc(F)c3C(N)=O)c3cc[nH]c3n1)N(C(=O)CN(C)OC)CC2`, the IC50 in [1] was 50 nM; in [2], 877 nM; in data set [3], 794 nM.

In turn, `CNC(=O)c1c(F)cccc1Nc1nc(Nc2cc3c(cc2OC)CCN3C(=O)CN(C)C)nc2[nH]ccc12` registered a clearance in [10] of 73 mL/min/kg. In the data set with Rattus norvegicus [11], this compound yielded an AUC of 210 ng·h/mL/mg/kg. In addition, the bioavailability in data set [12] amounted to 98%. Also, the Cmax in data set [13] turned out to be 365 ng/mL.

With `CCN(CC)CC(=O)N1CCc2cc(OC)c(Nc3nc(Nc4cccc(F)c4C(N)=O)c4cc[nH]c4n3)cc21`, the IC50 turned out to be 2 nM in data set [1], 85 nM in data set [2] and 1000 nM in [3].

Turning to `COc1cc2c(cc1Nc1nc(Nc3cccc(F)c3C(N)=O)c3cc[nH]c3n1)N(C(=O)CN1CCC1)CC2`, the figures for the concentration for half-maximal inhibition (IC50) in data set [1], in data set [2] and in data set [3] were 1 nM, 128 nM and 2000 nM, respectively.

On to `COc1cc(C)c(N2CCN(C(C)C)CC2)cc1Nc1nc(Nc2cccc(F)c2C(N)=O)c2cc[nH]c2n1`, for which the IC50 in data set [14] came out at 6310 nM; in data set [3], 3890 nM.

`COc1cc2c(cc1Nc1nc(Nc3cccc(F)c3C(N)=O)c3cc[nH]c3n1)N(C(=O)Cn1ccnc1)CC2`: the IC50 was 32 nM in data set [1], 7760 nM in data set [2] and 631 nM in data set [3].

As for `COc1cc2c(cc1Nc1nc(Nc3cccc(F)c3C(N)=O)c3cc[nH]c3n1)N(C(=O)CCN(C)C)CCC2`, the IC50 in data set [1] was determined as 10 nM; in data set [2], 209 nM; in [3], 7940 nM.

`COc1cc2c(cc1Nc1nc(Nc3cccc(F)c3C(N)=O)c3cc[nH]c3n1)N(C(=O)CN1CCCCC1)CCC2`: the results for the IC50 in [1], in [2] and in data set [3] were 1 nM, 11 nM and 2510 nM, respectively.

Consider `COc1ccc(N(C)C(=O)CN(C)C)cc1Nc1nc(Nc2cccc(F)c2C(N)=O)c2cc[nH]c2n1`, for which the IC50 worked out at 50 nM in data set [1], 377 nM in data set [2] and 10000 nM in data set [3].

As for `COc1ccc(NC(=O)CN(C)C)cc1Nc1nc(Nc2cccc(F)c2C(N)=O)c2cc[nH]c2n1`, the figures for the 50% inhibitory concentration (IC50) in [1], in [2] and in data set [3] were 1 nM, 28 nM and 3160 nM, respectively.

As to `COc1cc2c(cc1Nc1nc(Nc3cccc(F)c3C(N)=O)c3cc[nH]c3n1)N(C(=O)CN1CCOCC1)CC2`, the IC50 is 13 nM in [1], 72 nM in data set [2] and 126 nM in data set [3].

Consider `COc1cc(N2CCN(C(C)C)CC2)ccc1Nc1nc(Nc2cccc(F)c2C(N)=O)c2cc[nH]c2n1`, for which the IC50 in data set [14] was determined as 100 nM; in data set [3] it was 13 nM; in [15], 0.5 nM; at Insulin receptor, 1.6 nM.

Turning to `COc1cc2c(cc1Nc1nc(Nc3cccc(F)c3C(N)=O)c3cc[nH]c3n1)N(C(=O)CCN1CCOCC1)CC2`, the values for the IC50 in [1], in data set [2] and in data set [3] were 6 nM, 298 nM and 251 nM, respectively.

On to `COc1cc(C)c(CCCN(C)C)cc1Nc1nc(Nc2cccc(F)c2C(N)=O)c2cc[nH]c2n1`, for which the IC50 came to 13 nM in data set [1], 840 nM in [2] and 501 nM in data set [3].

`COc1ccc(N2CCN(C(C)C)CC2)cc1Nc1nc(Nc2cccc(F)c2C(N)=O)c2cc[nH]c2n1` showed an AUC with Rattus norvegicus [16] of 133 ng·h/mL/mg/kg. In data set [17], this compound showed a Cmax of 233 ng/mL. Also, the values for the IC50 in [14], in data set [2] and in data set [3] were 5010 nM, 201 nM and 3160 nM, respectively.

In the case of `COc1cc2c(cc1Nc1nc(Nc3cccc(F)c3C(N)=O)c3cc[nH]c3n1)N(C(=O)CN(C)C)CCC2`, the half-maximal inhibitory concentration (IC50) in [1] was 1 nM; in data set [2] it was 16 nM; in data set [3], 6310 nM.

In the case of `COc1cc2c(cc1Nc1nc(Nc3cccc(F)c3C(N)=O)c3cc[nH]c3n1)N(C(=O)CCN(C)C)CC2`, the figures for the half-inhibitory concentration (IC50) in [1], in data set [2] and in data set [3] were 8 nM, 191 nM and 794 nM, respectively.

For `COc1cc2c(cc1Nc1nc(Nc3cccc(F)c3C(N)=O)c3cc[nH]c3n1)N(C(=O)CN)CC2`, the IC50 came to 4 nM in [1], 765 nM in data set [2] and 1000 nM in data set [3].

Turning to `COc1cc2c(cc1Nc1nc(Nc3cccc(F)c3C(N)=O)c3cc[nH]c3n1)N(C(=O)CN1CCCC1)CC2`, the IC50 was determined as 1 nM in data set [1], 24 nM in [2] and 1260 nM in [3].

With `COc1cc(Cl)c(OCCCN(C)C)cc1Nc1nc(Nc2cccc(F)c2C(N)=O)c2cc[nH]c2n1`, the IC50 turned out to be 13 nM in data set [1], 895 nM in data set [2] and 1260 nM in [3].

`CCCN1CCC(Oc2cc(Nc3nc(Nc4cccc(F)c4C(N)=O)c4cc[nH]c4n3)c(OC)cc2Cl)CC1` [GSK-1713088A]: the figures for the IC50 in data set [1], in data set [2] and in [3] were 25 nM, 5370 nM and 3980 nM, respectively.

Take `COc1cc2c(cc1Nc1nc(Nc3cccc(F)c3C(N)=O)c3cc[nH]c3n1)N(C(=O)CN1CCN(C(C)C)CC1)CC2` [GSK-1751853A]: the figures for the IC50 in data set [1], in [2] and in data set [3] were 32 nM, 376 nM and 1590 nM, respectively.

As for `COc1cc(C)c(NC(=O)CN(C)C)cc1Nc1nc(Nc2cccc(F)c2C(N)=O)c2cc[nH]c2n1` [GSK-2213727A], the IC50 in data set [1] worked out at 0.5 nM; in [2] it was 38 nM; in [3] it was 2000 nM.

With `COc1cc(C)c(N(C)C(=O)CN(C)C)cc1Nc1nc(Nc2cccc(F)c2C(N)=O)c2cc[nH]c2n1` [GSK-2219385A], the IC50 in data set [1] worked out at 63 nM; in [2], 1730 nM; in data set [3] it was 10000 nM.

As a reminder, the IC50 is the point on the concentration scale where inhibition reaches its midpoint. As a reminder, the Cmax is the maximum level reached in the sampled fluid or tissue. As usually defined, the bioavailability is the share of a dose that reaches the circulation, judged against a reference dose that is usually intravenous.
